The source of these data is patent publication US20100203614A1, “FATTY ALDEHYDE REDUCTASE” (Utah State University, priority 2009, published 2010).

Experiment [1] addresses Marinobacter aquaeolei VT8 fatty aldehyde reductase (SEQ ID NO: 2) as maltose binding protein-fatty aldehyde reductase fusion protein (MBP-FALDR), SEQ ID NO: 3 (Marinobacter nauticus, UniProt A1U2T0). Kind of experiment: Inhibition of decanal reduction by MBP-FALDR. It counts as biochemical. To be noted: for effect on activity (in words): 1.0 mM. Here is the method: (§1) For Fatty Aldehyde Continuous Spectrophotometric Assay Development, all assays were performed in a sealed quartz cuvette with a 1 cm path length. The cuvette and solutions were first degassed with argon on a manifold to remove oxygen from the headspace and solutions. Substrates were initially disbursed into a buffer solution containing BSA at a concentration of 0.5 mg/mL by sonication for three ten second intervals using a microtip sonicator (Branson, Danbury, Conn.). The initial assay for pH optimization included a buffer of 100 mM MOPS, 100 mM MES, and 100 mM TAPS. For reduction assays, 75 μL of a 2 mg/mL NADPH stock was added to bring the initial concentration of NADPH in the cuvette to approximately 200 μM, and an approximate absorbance at 340 nm of 1.2 based on the reported extinction coefficient of 6220 M^−1 cm^−1 for NADPH. In all assays, the reaction was run for at least two minutes with the NADPH and substrate present, prior to the addition of any enzyme, to obtain a background oxidation rate of the NADPH. […] A linear fit of the data was then used to establish the rate, and the initial background rate was subtracted, to determine the rate associated with substrate reduction by the MBP-FALDR enzyme.
To probe the possible mechanism of the fatty aldehyde reducatase enzyme comprising the amino acid sequence of SEQ ID NO: 2, applicants again used the MBP-FALDR enzyme and some potential chemical inhibitors were tested for effects on the reduction of decanal by the MBP-FALDR enzyme in the presence of NADPH. In all cases, the compound was tested initially at concentrations of 1.0 mM, and if a significant inhibition was found, lower concentrations were also tested (Table 2). […] At higher concentrations, this was difficult to assess fully, as the dithionite interferes with the absorbance at 340 nm where activity is measured. […] This could be an indication of an active site residue or cofactor that is susceptible to reduction. […] This would indicate that if a transition metal is involved in the catalysis, it is not readily accessible to such chelators. Finally, the ability of decanol to inhibit reduction of decanal was also tested.
Certain embodiments of the invention may be characterized, in part, by the inhibition of the reduction of decanal by a fatty aldehyde reductase enzyme comprised by an amino acid sequence at least 90% identical to the amino acid sequence of SEQ ID NO: 2.
Referring again to Table 2, the inhibition assays were run in 100 mM MES buffer pH 6.5 with 200 μM NADPH, 250 μM decanal and 125 μg of MBP-FALDR fusion protein. All compounds were dissolved in buffer except dipyridyl, which was dissolved in dimethyl sulfoxide (DMSO). […] Activity is reported as the activity remaining in the presence of each compound as a percentage of the activity without any inhibitor present. *Not determined. Each compound was tested multiple times to confirm reproducibility. The remaining activity presented here is the result from a single set of data.

In another experiment the test system is MBP-FALDR fusion protein. The experiment can be described thus: Inhibition of decanal reduction by MBP-FALDR in the presence of NADPH. It counts as biochemical, Marinobacter aquaeolei VT8. To be noted: for Percent Activity: 100 mM MES pH 6.5, 200 μM NADPH, 250 μM decanal, 125 μg MBP-FALDR, activity remaining vs no inhibitor; for effect on decanal reduction in words: tested at 1.0 mM. As to the method: For Fatty Aldehyde Continuous Spectrophotometric Assay Development, all assays were performed in a sealed quartz cuvette with a 1 cm path length. The cuvette and solutions were first degassed with argon on a manifold to remove oxygen from the headspace and solutions. Substrates were initially disbursed into a buffer solution containing BSA at a concentration of 0.5 mg/mL by sonication for three ten second intervals using a microtip sonicator (Branson, Danbury, Conn.). The initial assay for pH optimization included a buffer of 100 mM MOPS, 100 mM MES, and 100 mM TAPS. For reduction assays, 75 μL of a 2 mg/mL NADPH stock was added to bring the initial concentration of NADPH in the cuvette to approximately 200 μM, and an approximate absorbance at 340 nm of 1.2 based on the reported extinction coefficient of 6220 M^−1 cm^−1 for NADPH. In all assays, the reaction was run for at least two minutes with the NADPH and substrate present, prior to the addition of any enzyme, to obtain a background oxidation rate of the NADPH.
Finally, the ability of decanol to inhibit reduction of decanal was also tested.
Referring again to Table 2, the inhibition assays were run in 100 mM MES buffer pH 6.5 with 200 μM NADPH, 250 μM decanal and 125 μg of MBP-FALDR fusion protein. All compounds were dissolved in buffer except dipyridyl, which was dissolved in dimethyl sulfoxide (DMSO).

Experiment [2] relates to MBP-FALDR enzyme (maltose binding protein-fatty aldehyde reductase fusion protein). The experiment can be described thus: Continuous spectrophotometric assay of fatty aldehyde reductase activity (NADPH oxidation at 340 nm), substrate comparison and kinetics. It counts as biochemical, Marinobacter aquaeolei VT8. To be noted: for substrate activity in words: compared with decanal; for substrate activity in words / Relative Activity (Percent of Decanal): substrate 100 μg/mL; for Relative Activity (Percent of Decanal): 160 μg enzyme, decanal = 85 nmols/min/mg = 100; for Km: substrate of MBP-FALDR, NADPH, FIG. 2 substrate is cis-11-hexadecenal. As to the method: as §1
Having established that the MBP-FALDR would utilize NADPH as a substrate, it was possible to employ a continuous spectrophotometric assay to monitor substrate reduction rates based on the loss of absorbance at 340 nm when NADPH is oxidized to NADP^+. Using this assay, it was possible to establish the pH dependence of the reduction reaction. The rate of reaction was highest at pH 6.3, with a steep increase in activity going from 8.0 to 6.3. The rate at 6.3 was only slightly greater than at 6.5 ([…]). Several factors had to be considered in establishing the optimal pH of the assay. The first was the background oxidation of the NADPH without any MBP-FALDR enzyme present. […] The assays were run under an argon atmosphere to minimize oxidation of the NADPH by O2. A further consideration was the rapid degradation that occurs at the lowest pH values. […] So, for standard assays used here, a pH of 6.5 was selected, where the activity was minimally affected by slight variations in pH. The following discussion is useful in understanding some features and benefits of the various embodiments of the invention:
Utilizing the continuous assay to monitor MBP-FALDR activity, the dependence of rate on substrate concentration was determined for all of the commercially available substrates described above. Each assay was repeated multiple times to confirm the results from each single determination. The results obtained for cis-11-hexadecenal are shown in FIG. 2 and are representative of the results obtained for repeated determinations and for the other substrates. […] In addition, several factors could limit the observed activity. All of the substrates tested have limited solubility in aqueous solutions, and must first be suspended in solution via sonication. Even under these conditions, it is likely that the substrates exist inside micelles. The sonication process utilized here could result in the partial degradation of the substrate over time. Additionally, the suspension of the substrate in solution is only temporary, and the substrate slowly separates from aqueous solution. Due to these limitations, the measured activity is likely to be an underestimate of the actual activity. In the cell, the enzyme and substrate are likely associated with the hydrophobic membranes. […] It was also observed that the MBP-FALDR enzyme was unstable over time, even when stored at 4° C., losing as much as 50% of the activity over a period of a week. Though the purification is quite rapid, it is uncertain how much activity is lost during preparation. […]

For the next experiment, the system named is MBP-FALDR enzyme. The experiment can be described thus: Initial assessment of activity: overnight reaction with NADPH/NADH or NADP+, GC/GC-MS analysis. It counts as biochemical, Marinobacter aquaeolei VT8. As to conditions: with NADP+. Here is the method: For initial assessment of the activity of the purified MBP-FALDR enzyme, 50 μg of purified MBP-FALDR protein was added to a reaction mixture containing 100 mM of Tris buffer at pH 7.9, 100 mM NaCl, 2.4 mM of either NADPH or NADH as a reductant, and decanal, oleic acid, and hexadecanol as possible substrates. The assays were run under an argon atmosphere in septa sealed vials overnight at room temperature with constant gentle mixing. The products of the reactions were then extracted from the buffer by adding an equal volume of hexane and organic layer components were analyzed by gas chromatography equipped with a flame ionization detector (Forte HT5 column (SGE Analytical Science, Austin, Tex.), 30 meter by 0.32 mm inner diameter with 0.5 μm film thickness, with argon as a carrier and a temperature ramp from 60° C. to 360° C. increasing at 10° C. per minute). Samples containing new peaks not present in a control sample were also run through a gas chromatograph equipped with a mass spectrometer (Shimadzu GC-2010 and GCMS-QP2010S) to assign the identity of the product.
Preliminary experiments were run with the MBP-FALDR enzyme to probe possible substrates by mixing either NADH or NADPH with an aldehyde (decanal), alcohol (hexadecanol) or fatty acid (oleic acid) and then looking for changes in concentration of one or more of the potential substrates by GC analysis. The assays were allowed to run overnight in a sealed vial under an atmosphere of argon to maintain the reduced forms of the nicotinamide coenzymes. […] This initial result pointed to the likelihood that the MBP-FALDR enzyme is an NADPH-dependent fatty aldehyde reductase, and further experiments were run to characterize this activity. […] The activity of medium chain alcohol dehydrogenases from a broad range of species show rates of oxidation of alcohols that are 10% of the rates of the reduction of the corresponding aldehyde, so it is possible that this rate is too low to detect.

Where [3] appears, read: reduction of decanal with NADPH.

Where “and” joins values, the source holds several entries; their conditions need not be identical. Equal values may be shown once. Entries after “also recorded” stand apart in the source; their conditions may differ. Where a name gives a salt, the structure may show the parent alone. Read-outs that look alike come from different tables or passages of the source. Where only a bound is given, the exact number is not on record here.

On to `O=C(O)CN(CCN(CC(=O)O)CC(=O)O)CC(=O)O` [EDTA (Disodium Salt)], for which the “effect on activity (in words)” value in experiment [1] (setting [3]) is recorded as “little effect on the activity”. Also, the inhibition at 1000 µM in experiment [1] (pH 6.5, read-out: Percent Activity (activity remaining in presence of inhibitor)) came out at 81%.

Regarding `O=C1O[C@H]([C@@H](O)CO)C(O)=C1O` [Ascorbic Acid], the “Percent Activity” value with MBP-FALDR fusion protein (inhibitor 1.0 mM) was found to be 76%.

With `O[C@H](CS)[C@H](O)CS` (racemic) [Dithiothreitol], the “Percent Activity” value with MBP-FALDR fusion protein (inhibitor 1.0 mM) is listed as 76%.

As for `CCCCCCCC=O` [Octanal], in experiment [2], the “substrate activity in words” value is reported as “approximately half the activity obtained for decanal” and the “Relative Activity (Percent of Decanal)” value was 52% of Decanal. In experiment [2] (Michaelis-Menten fit), the Km (in general, the concentration of substrate that gives half-maximal velocity) was about 750 µM.

In the case of `CCCC/C=C\CCCCCCCCCC=O` [cis-11-hexadecenal], the “Vmax (maximum velocity)” value in experiment [2] (Michaelis-Menten fit, substrate cis-11-hexadecenal (FIG. 2)) is reported as 63 nmol/min/mg. Moreover, in experiment [2], the “substrate activity in words” value is “slightly lower than that obtained for decanal; also recorded: activity comparable to decanal” and the “Relative Activity (Percent of Decanal)” value was 87% of Decanal. In addition, the Km in experiment [2] (Michaelis-Menten fit) was ~177 µM and 177 µM.

In the case of `OCCS` [β-Mercaptoethanol], the inhibition at 1000 µM in experiment [1] (1.0 mM inhibitor, 100 mM MES pH 6.5, 200 μM NADPH, 250 μM decanal, 125 μg MBP-FALDR, % of activity without inhibitor, read-out: Percent Activity (activity remaining in presence of inhibitor)) turned out to be 75%.

For the compound `O=Cc1ccccc1` [Benzaldehyde], in experiment [2], the “substrate activity in words” value is “no apparent activity” and the “Relative Activity (Percent of Decanal)” value is <1% of Decanal.

With `c1ccc(-c2ccccn2)nc1` [Dipyridyl], the “Percent Activity” value in the experiment on MBP-FALDR fusion protein (inhibitor 0.25 mM) came out at 59%; in the experiment on MBP-FALDR fusion protein (inhibitor 1.0 mM) it was 46%. Further, in the experiment with MBP-FALDR fusion protein, the “effect on decanal reduction in words” value is “moderate inhibition”. In addition, in experiment [1] (setting [3]), the “effect on activity (in words)” value is listed as “only a moderate inhibition of activity”.

In the case of `CCCCCCCCCCCCCCCCO` [hexadecanol], the “reverse reaction: aldehyde production by GC” value with MBP-FALDR enzyme is on record as “no detectable levels”.

As to `CCCCCC=O` [Hexanal], in experiment [2], the “substrate activity in words” value is reported as “no apparent activity” and the “Relative Activity (Percent of Decanal)” value is listed as <1% of Decanal.

Regarding `O=S(O)S(=O)O` [Dithionite], the results for the “Percent Activity” value in the experiment with MBP-FALDR fusion protein (inhibitor 0.25 mM) and with MBP-FALDR fusion protein (inhibitor 1.0 mM) were 8% and 25%, respectively. In addition, in the experiment on MBP-FALDR fusion protein, the “effect on decanal reduction in words” value is given as “significant decrease in activity”. Further, the “Percent Activity (activity remaining in presence of inhibitor)” value amounted to 8% in experiment [1] (0.25 mM inhibitor, 100 mM MES pH 6.5, 200 μM NADPH, 250 μM decanal, 125 μg MBP-FALDR, % of activity without inhibitor) and 25% in experiment [1] (1.0 mM inhibitor, 100 mM MES pH 6.5, 200 μM NADPH, 250 μM decanal, 125 μg MBP-FALDR, % of activity without inhibitor). The “inhibition (in words)” value in experiment [1] (250 μM, reduction of decanal with NADPH, compared with higher concentration) is listed as “the inhibition is more pronounced”. In experiment [1] (setting [3]), the “effect on activity (in words)” value is “significant decrease in activity”.

Consider `CCCC=O` [Butanal], for which, in experiment [2], the “substrate activity in words” value is given as “no apparent activity” and the “Relative Activity (Percent of Decanal)” value was <1% of Decanal.

Consider `CCCCCCCCCCCC=O` [Dodecanal], for which, in experiment [2], the “substrate activity in words” value was “activity was lower” and the “Relative Activity (Percent of Decanal)” value was 55% of Decanal. Further, the Km in experiment [2] (Michaelis-Menten fit) is about 200 µM.

As to `CCCCCCCCCCCCO` [Dodecanol], the “Percent Activity” value in the experiment with MBP-FALDR fusion protein (inhibitor 0.25 mM) is on record as 55%; in the experiment on MBP-FALDR fusion protein (inhibitor 1.0 mM), 54%.
